According to US9481670B2, “Triazine compounds” (Sphaera Pharma PTE. Ltd., priority 2011, dated 2016):

Target: T1, PI3K alpha (Homo sapiens, UniProt P42336)
T1 construct: purchased Millipore Upstate
Experiment: P110 Alpha TR-FRET Assay (PI3K alpha kinase assay, HTRF Transcreener ADP Assay)
Format: biochemical
Conditions: PI3K (WT)
Method: PI3K alpha kinase assay may be done using HTRF Transcreener ADP Assay (Cisbio).
Composition of the reaction buffer was as follows 50 mM HEPES, pH 7.5, 5 mM MgCl2, 1 mM DTT, 30 μM Na3VO4. PI3 Kinase was procured from Millipore Upstate. […] ATP was used at final concentration of 10 μM. Corning 384 well white plates were used for the assay.
2 μl of diluted enzyme (50 ng), 3 μl of diluted compound and 5 μl of buffer were added, mixed then incubated for 20 minutes with shaking at 400 rpm. 3 μl of substrate (10 μM of ATP and 5 μM PIP2) were added to initiate the reaction. The samples were incubated for 20 min. At the end of the reaction time 10 μl of the Detection mix (5 μl of ADP-D2 and 5 μl of Anti-ADP-Cryptate) was added and the contents were incubated for 1 h. The reaction plate was directly read in an Envision Multilabel Plate Reader.

T1 sequence (P42336 whole entry): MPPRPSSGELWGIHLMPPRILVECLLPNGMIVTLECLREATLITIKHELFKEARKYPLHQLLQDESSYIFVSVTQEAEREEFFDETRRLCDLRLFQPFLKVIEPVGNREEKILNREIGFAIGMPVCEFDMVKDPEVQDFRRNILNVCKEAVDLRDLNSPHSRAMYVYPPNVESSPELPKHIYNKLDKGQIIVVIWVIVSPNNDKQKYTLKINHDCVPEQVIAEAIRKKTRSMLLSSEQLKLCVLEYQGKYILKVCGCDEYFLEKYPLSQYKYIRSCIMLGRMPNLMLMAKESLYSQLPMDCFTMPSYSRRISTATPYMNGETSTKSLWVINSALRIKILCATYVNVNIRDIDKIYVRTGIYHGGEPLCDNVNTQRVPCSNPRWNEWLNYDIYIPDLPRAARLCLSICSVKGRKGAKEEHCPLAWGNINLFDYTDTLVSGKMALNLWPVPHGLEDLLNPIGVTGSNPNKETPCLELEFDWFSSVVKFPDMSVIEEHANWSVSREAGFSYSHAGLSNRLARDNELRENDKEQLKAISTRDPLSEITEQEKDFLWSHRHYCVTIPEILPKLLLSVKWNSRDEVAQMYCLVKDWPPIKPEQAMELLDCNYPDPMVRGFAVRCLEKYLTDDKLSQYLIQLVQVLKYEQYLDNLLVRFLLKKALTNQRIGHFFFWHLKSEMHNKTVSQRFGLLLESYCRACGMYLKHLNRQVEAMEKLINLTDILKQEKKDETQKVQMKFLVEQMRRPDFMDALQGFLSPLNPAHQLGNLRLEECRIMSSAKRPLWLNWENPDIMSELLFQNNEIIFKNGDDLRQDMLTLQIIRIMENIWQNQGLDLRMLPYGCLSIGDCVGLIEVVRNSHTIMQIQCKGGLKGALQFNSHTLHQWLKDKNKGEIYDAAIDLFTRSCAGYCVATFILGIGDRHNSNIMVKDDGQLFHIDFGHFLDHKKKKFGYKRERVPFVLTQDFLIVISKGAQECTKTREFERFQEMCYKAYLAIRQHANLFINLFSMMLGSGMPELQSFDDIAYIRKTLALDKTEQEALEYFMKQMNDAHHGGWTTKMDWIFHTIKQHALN
T1 sequence (P27986 whole entry partner): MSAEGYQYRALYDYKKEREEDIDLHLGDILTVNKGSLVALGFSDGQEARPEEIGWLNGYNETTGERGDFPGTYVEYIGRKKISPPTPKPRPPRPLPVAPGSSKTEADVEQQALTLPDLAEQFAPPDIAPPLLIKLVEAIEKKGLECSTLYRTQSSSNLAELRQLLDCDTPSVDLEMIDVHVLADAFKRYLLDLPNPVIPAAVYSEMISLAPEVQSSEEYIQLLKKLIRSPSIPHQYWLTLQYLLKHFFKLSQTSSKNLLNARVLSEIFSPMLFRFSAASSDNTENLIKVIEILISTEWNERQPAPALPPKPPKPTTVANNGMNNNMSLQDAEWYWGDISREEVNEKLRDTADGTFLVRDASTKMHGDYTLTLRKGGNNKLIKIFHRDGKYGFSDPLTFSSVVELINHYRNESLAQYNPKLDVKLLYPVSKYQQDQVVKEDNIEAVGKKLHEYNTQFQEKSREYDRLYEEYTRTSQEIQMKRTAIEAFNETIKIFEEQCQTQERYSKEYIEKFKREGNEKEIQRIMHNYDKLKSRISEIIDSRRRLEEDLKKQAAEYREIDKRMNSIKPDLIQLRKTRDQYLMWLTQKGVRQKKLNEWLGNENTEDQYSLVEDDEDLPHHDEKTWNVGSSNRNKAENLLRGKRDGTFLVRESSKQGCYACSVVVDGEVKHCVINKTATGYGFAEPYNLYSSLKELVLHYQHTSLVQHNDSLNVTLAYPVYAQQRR

SMILES | IC50
CN(C)C(=O)c1ccc(Oc2nc(-c3cccc4[nH]ncc34)nc(N3C4CCC3COC4)n2)cc1 [Compound 1068, 4-9-{[4-1-(1H-indazol-4-yl)-6-5-{3-oxa-8-azabicyclo[3.2.1]octan-8-yl}-1,3,5-triazin-2-yl]oxy}-N,N-dimethylbenzamide] | > 5 µM
Nc1ccc(-c2nc(CO)nc(N3CCOCC3)n2)cn1 [Compound 1071, 1-7-[4-3-(6-16-aminopyridin-3-yl)-6-5-(morpholin-4-yl)-1,3,5-triazin-2-yl]methanol] | < 5 µM
CN(C)C(=O)c1ccc(Oc2nc(-c3cccc4[nH]ncc34)nc(N3CCCOCC3)n2)cc1 [Compound 1073, 4-7-{[4-5-(1H-indazol-4-yl)-6-3-(1,4-oxazepan-4-yl)-1,3,5-triazin-2-yl]oxy}-N,N-dimethylbenzamide] | < 5 µM
CS(=O)(=O)N1CCN(C(=O)CNc2nc(-c3ccc(F)nc3)nc(N3CCOCC3)n2)CC1 [Compound 1080, 2-((4-(6-fluoropyridin-3-yl)-6-morpholino-1,3,5-triazin-2-yl)amino)-1-(4-(methylsulfonyl)piperazin-1-yl)ethanone] | > 5 µM
CNC(=O)c1ccc(Oc2nc(-c3cnc(N)s3)nc(N3CCOCC3)n2)cc1 [Compound 1082] | < 5 µM
CS(=O)(=O)N[C@@H]1CC[C@@H](Oc2nc(-c3cccc4[nH]ncc34)nc(N3CCOCC3)n2)C1 [Compound 1083, N-[(1R,3R)-3-14-{[4-1-(1H-indazol-4-yl)-6-5-(morpholin-4-yl)-1,3,5-triazin-2-yl]oxy}cyclopentyl]methanesulfonamide] | < 5 µM
CN(C)C(=O)Cc1ccc(Oc2nc(-c3cccc4[nH]ncc34)nc(N3CCOCC3)n2)cc1 [Compound 1085, 2-27-(4-14-{[4-1-(1H-indazol-4-yl)-6-5-(morpholin-4-yl)-1,3,5-triazin-2-yl]oxy}phenyl)-N,N-dimethylacetamide] | < 5 µM
O=c1[nH]c2ccc(Oc3nc(-c4cccc5[nH]ncc45)nc(N4CCOCC4)n3)cc2[nH]1 [Compound 1086, 5-23-{[4-1-(1H-indazol-4-yl)-6-5-(morpholin-4-yl)-1,3,5-triazin-2-yl]oxy}-2,3-dihydro-1H-1,3-benzodiazol-2-one] | < 5 µM
CS(=O)(=O)N1CCN(C(=O)CNc2nc(-c3cccc(O)c3)nc(N3CCOCC3)n2)CC1 [Compound 1089, 2-((4-(3-hydroxyphenyl)-6-morpholino-1,3,5-triazin-2-yl)amino)-1-(4-(methylsulfonyl)piperazin-1-yl)ethanone] | < 5 µM
NC(=O)C(Cc1ccccc1)Nc1nc(-c2cccc(O)c2)nc(N2CCOCC2)n1 (stereo not drawn) [Compound 1090, 2-((4-(3-hydroxyphenyl)-6-morpholino-1,3,5-triazin-2-yl)amino)-3-phenylpropanamide] | < 5 µM
CN(C)C(=O)N1CCCC(Oc2nc(-c3cccc4[nH]ncc34)nc(N3CCOCC3)n2)C1 (stereo not drawn) [Compound 1091, 3-22-{[4-1-(1H-indazol-4-yl)-6-5-(morpholin-4-yl)-1,3,5-triazin-2-yl]oxy}-N,N-dimethylpiperidine-1-carboxamide] | < 5 µM
CS(=O)(=O)Nc1ccc(Oc2nc(-c3cccc4[nH]ncc34)nc(N3CCOCC3)n2)cc1 [Compound 1093, N-(4-14-{[4-1-(1H-indazol-4-yl)-6-5-(morpholin-4-yl)-1,3,5-triazin-2-yl]oxy}phenyl)methanesulfonamide] | < 5 µM
CC1COCC(C)N1c1nc(Oc2ccc(C(=O)N(C)C)cc2)nc(-c2cccc3[nH]ncc23)n1 (stereo not drawn) [Compound 1097, 4-9-{[4-5-(3-28,5-32-dimethylmorpholin-4-yl)-6-1-(1H-indazol-4-yl)-1,3,5-triazin-2-yl]oxy}-N,N-dimethylbenzamide] | < 5 µM
CC1COCCN1c1nc(Oc2ccc(C(=O)N(C)C)cc2)nc(-c2cccc3[nH]ncc23)n1 (stereo not drawn) [Compound 1098, 4-9-{[4-1-(1H-indazol-4-yl)-6-5-(3-28-methylmorpholin-4-yl)-1,3,5-triazin-2-yl]oxy}-N,N-dimethylbenzamide] | < 5 µM

Continued, values first:

IC50 | SMILES
> 5 µM | C[C@H](Nc1nc(-c2cccc(NS(C)(=O)=O)c2)nc(N2CCOCC2)n1)C(=O)N1CCN(S(C)(=O)=O)CC1 [Compound 1066, N-[3-16-(4-1-{[(2S)-1-(4-30-methanesulfonylpiperazin-1-yl)-1-oxopropan-2-yl]amino}-6-2-(morpholin-4-yl)-1,3,5-triazin-2-yl)phenyl]methanesulfonamide]
< 5 µM | CN(C)C(=O)c1cc(Oc2nc(-c3cccc4[nH]ncc34)nc(N3CCOCC3)n2)cs1 [Compound 1067, 4-14-{[4-1-(1H-indazol-4-yl)-6-5-(morpholin-4-yl)-1,3,5-triazin-2-yl]oxy}-N,N-dimethylthiophene-2-carboxamide]
< 5 µM | CN(C)C(=O)NC1CCN(c2nc(-c3ccc(N)nc3)nc(N3CCOCC3)n2)CC1 [Compound 1069, 1-{1-7-[4-3-(6-16-aminopyridin-3-yl)-6-5-(morpholin-4-yl)-1,3,5-triazin-2-yl]piperidin-4-yl}-3,3-dimethylurea]
> 5 µM | CN(C)C(=O)CNc1nc(-c2cccc3c2CCC3O)nc(N2CCOCC2)n1 (stereo not drawn) [Compound 1070, 2-((4-(1-hydroxy-2,3-dihydro-1H-inden-4-yl)-6-morpholino-1,3,5-triazin-2-yl)amino)-N,N-dimethylacetamide]
> 5 µM | CN(C)C(=O)c1ccc(Oc2nc(-c3cccc4[nH]ncc34)nc(N3CCOCC3)n2)nc1 [Compound 1072, 6-14-{[4-1-(1H-indazol-4-yl)-6-5-(morpholin-4-yl)-1,3,5-triazin-2-yl]oxy}-N,N-dimethylpyridine-3-carboxamide]
< 5 µM | CS(=O)(=O)N1CCN(C(=O)CNc2nc(-c3ccc(O)nc3)nc(N3CCOCC3)n2)CC1 [Compound 1074, 2-((4-(6-hydroxypyridin-3-yl)-6-morpholino-1,3,5-triazin-2-yl)amino)-1-(4-(methylsulfonyl)piperazin-1-yl)ethanone]
> 5 µM | COC1CN(c2nc(Oc3ccc(C(=O)N(C)C)cc3)nc(-c3cccc4[nH]ncc34)n2)C1 [Compound 1075, 4-9-{[4-1-(1H-indazol-4-yl)-6-5-(3-29-methoxyazetidin-1-yl)-1,3,5-triazin-2-yl]oxy}-N,N-dimethylbenzamide]
< 5 µM | CC(Nc1nc(-c2cccc(O)c2)nc(N2CCOCC2)n1)C(=O)N1CCN(S(C)(=O)=O)CC1 (stereo not drawn) [Compound 1076, 2-((4-(3-hydroxyphenyl)-6-morpholino-1,3,5-triazin-2-yl)amino)-1-(4-(methylsulfonyl)piperazin-1-yl)propan-1-one]
< 5 µM | Nc1ncc(-c2nc(N3CCNCC3)nc(N3CCOCC3)n2)cn1 [Compound 1077, 5-13-[4-5-(morpholin-4-yl)-6-3-(piperazin-1-yl)-1,3,5-triazin-2-yl]pyrimidin-2-amine]
> 5 µM | O=C(O)CNc1nc(-c2cccc3c2CCC3=O)nc(N2CCOCC2)n1 [Compound 1078, 2-((4-morpholino-6-(1-oxo-2,3-dihydro-1H-inden-4-yl)-1,3,5-triazin-2-yl)amino)acetic acid]
> 5 µM | COc1cccc(-c2nc(NCC(=O)N3CCN(S(C)(=O)=O)CC3)nc(N3CCOCC3)n2)c1 [Compound 1079, 2-((4-(3-methoxyphenyl)-6-morpholino-1,3,5-triazin-2-yl)amino)-1-(4-(methylsulfonyl)piperazin-1-yl)ethanone]
> 5 µM | c1ccc(Nc2nc(-c3cccc4c3cnn4C3CCCCO3)nc(N3CCOCC3)n2)cc1 (stereo not drawn) [Compound 1084, 4-morpholino-N-phenyl-6-(1-(tetrahydro-2H-pyran-2-yl)-1H-indazol-4-yl)-1,3,5-triazin-2-amine]
< 5 µM | CN(C)C(=O)N1CCCC(Oc2nc(-c3cccc4[nH]ncc34)nc(N3CCOCC3)n2)CC1 (stereo not drawn) [Compound 1087, 4-14-{[4-1-(1H-indazol-4-yl)-6-5-(morpholin-4-yl)-1,3,5-triazin-2-yl]oxy}-N,N-dimethylazepane-1-carboxamide]
< 5 µM | CN(C)C(=O)c1cccc(Oc2nc(-c3cccc4[nH]ncc34)nc(N3CCOCC3)n2)c1 [Compound 1088, 3-22-{[4-1-(1H-indazol-4-yl)-6-5-(morpholin-4-yl)-1,3,5-triazin-2-yl]oxy}-N,N-dimethylbenzamide]
< 5 µM | NS(=O)(=O)Nc1ccc(Oc2nc(-c3cccc4[nH]ncc34)nc(N3CCOCC3)n2)cc1 [Compound 1092, N-(4-14-{[4-1-(1H-indazol-4-yl)-6-5-(morpholin-4-yl)-1,3,5-triazin-2-yl]oxy}phenyl)aminosulfonamide]
< 5 µM | NS(=O)(=O)N[C@H]1CC[C@H](Oc2nc(-c3cccc4[nH]ncc34)nc(N3CCOCC3)n2)CC1 [Compound 1094, N-[(1r,4r)-4-9-{[4-1-(1H-indazol-4-yl)-6-5-(morpholin-4-yl)-1,3,5-triazin-2-yl]oxy}cyclohexyl]aminosulfonamide]
< 5 µM | CS(=O)(=O)N[C@H]1CC[C@H](Oc2nc(-c3cccc4[nH]ncc34)nc(N3CCOCC3)n2)CC1 [Compound 1095, N-[(1r,4r)-4-9-{[4-1-(1H-indazol-4-yl)-6-5-(morpholin-4-yl)-1,3,5-triazin-2-yl]oxy}cyclohexyl]methanesulfonamide]
< 5 µM | CS(=O)(=O)N1CCC(COc2nc(-c3cccc4[nH]ncc34)nc(N3CCOCC3)n2)CC1 [Compound 1096, 4-(4-(1H-indazol-4-yl)-6-((1-(methylsulfonyl)piperidin-4-yl)methoxy)-1,3,5-triazin-2-yl)morpholine]
< 5 µM | CN(C)C(=O)[C@H]1C[C@H](Oc2nc(-c3cccc4[nH]ncc34)nc(N3CCOCC3)n2)CN1C [Compound 1099, (2R,4S)-4-14-{[4-1-(1H-indazol-4-yl)-6-5-(morpholin-4-yl)-1,3,5-triazin-2-yl]oxy}-N,N,1-trimethylpyrrolidine-2-carboxamide]
